Laboratory results: PMC3114813 (Environmental Health Perspectives, 2011)
Where a chain is given by its changes, count along the chain named.

Tests used:
[1] = target: T1, androgen receptor (AR) (Homo sapiens, UniProt P10275, Q868H); assay: cell-based; conditions: for IC20: MDA-kb2, read-out: Antiandrogen IC20 (μM) MDA-kb2; for Antiandrogenic activity in the MDA-kb2 assay (in words): MDA-kb2 / 'our assay'; for ERR (environmental relevance ratio): total exposure score / IC20 (MDA-kb2), recalculated using experimental data
T1 construct: MDA-kb2 cells are human breast cancer cells stably transfected with a firefly luciferase reporter gene; endogenous in cells; host or cells: MDA-kb2 (human breast cancer cells)
T1 sequence (P10275 1-920 Q868H): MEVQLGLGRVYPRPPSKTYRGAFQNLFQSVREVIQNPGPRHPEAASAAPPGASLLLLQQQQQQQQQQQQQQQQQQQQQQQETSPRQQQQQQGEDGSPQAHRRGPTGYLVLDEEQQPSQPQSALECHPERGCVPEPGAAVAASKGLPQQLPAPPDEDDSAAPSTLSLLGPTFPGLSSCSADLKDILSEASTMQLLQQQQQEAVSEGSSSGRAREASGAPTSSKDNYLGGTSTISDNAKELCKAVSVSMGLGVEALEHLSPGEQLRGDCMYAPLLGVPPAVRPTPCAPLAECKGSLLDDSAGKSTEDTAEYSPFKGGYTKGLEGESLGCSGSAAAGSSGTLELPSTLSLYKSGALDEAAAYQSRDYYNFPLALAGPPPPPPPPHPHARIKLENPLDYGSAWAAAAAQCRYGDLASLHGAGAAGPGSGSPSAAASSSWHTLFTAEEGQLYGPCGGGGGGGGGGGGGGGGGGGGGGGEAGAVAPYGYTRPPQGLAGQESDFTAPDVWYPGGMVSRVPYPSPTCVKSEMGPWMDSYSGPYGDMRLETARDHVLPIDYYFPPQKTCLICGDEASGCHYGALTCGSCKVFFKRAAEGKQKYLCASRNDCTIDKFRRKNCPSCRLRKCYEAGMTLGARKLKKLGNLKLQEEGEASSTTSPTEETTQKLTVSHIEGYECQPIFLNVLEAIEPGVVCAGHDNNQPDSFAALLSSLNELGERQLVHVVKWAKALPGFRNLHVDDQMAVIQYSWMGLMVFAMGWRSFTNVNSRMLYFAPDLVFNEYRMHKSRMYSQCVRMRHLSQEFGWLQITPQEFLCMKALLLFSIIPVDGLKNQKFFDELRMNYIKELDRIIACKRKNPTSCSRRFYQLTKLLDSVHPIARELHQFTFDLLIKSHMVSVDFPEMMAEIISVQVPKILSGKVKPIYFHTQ
Experimental: (§1) MDA-kb2 cells are human breast cancer cells stably transfected with a firefly luciferase reporter gene that is driven by an androgen-response element–containing promoter ([Wilson et al. 2002]). Details of the modified assay were published previously ([Ermler et al. 2010]). Briefly, cells were seeded at a concentration of 1 × 10^5 cells/mL in phenol red–free Leibowitz-15 medium (Invitrogen Ltd., Paisley, UK) containing 10% (charcoal-stripped) fetal calf serum (Invitrogen Ltd.) in white luminometer plates and allowed to attach for 24 hr. Cells were then exposed to eight serial dilutions of selected pesticides with or without DHT (0.25 nM). After 24 hr, luciferase activity was determined with SteadyGlo assay reagent (Promega UK Ltd., Southampton, Hampshire, UK) and measured in a plate reader (FLUOstar Optima, BMG Labtech GmbH, Offenburg, Germany). […] All concentrations were tested in duplicate over two plates, and each pesticide was measured at least twice in separate experiments. For comparative purposes, luminescence was normalized to DHT alone at coexposure concentration (maximum response, 100%) and solvent-only (ethanol) controls (minimum response, 0%). […] Pesticides were initially tested over a concentration range of 0.64 nM–50 μM (5× dilutions) as a range-finding exercise. Subsequently, the concentration ranges were modified to reflect the potency and toxicity of each individual compound. […] Sixty percent of the pesticides were repeat tested using the same product but with new stock solutions and by a different experimenter.
(§2) To analyze antiandrogenic action, raw luminescence readings were normalized on a plate-by-plate basis to the means of the positive DHT controls (n = 8) and the solvent controls (n = 8) ([Ermler et al. 2010]). […] Specifically, a variety of nonlinear regression models were fitted independently to the same data set, and the best-fitting model was selected using a statistical goodness-of-fit criterion. […] Data considered to be statistically significant at p < 0.05 were analyzed using the best-fit approach as described above. All statistical analysis was performed using SAS statistical software (SAS Institute Inc., Cary, NC, USA). From the best-fitting model, we derived inhibitory concentrations for antiandrogenicity and effect concentrations for cytotoxicity.

[2] = target: T2, androgen receptor (AR) (Homo sapiens, UniProt P10275); assay: cell-based; format: cell-based; conditions: for IC20: coincubated with DHT 6.4 nM, 53 hr at 28°C, Neg = no response was observed, read-out: Antiandrogen IC20 (μM) YAS
T2 construct: expressed in transfected cells; host or cells: yeast (YAS strain)
T2 sequence (P10275 1-920): T1 sequence (P10275 1-920 Q868H) with H868Q
Experimental: (§3) Briefly, stimulation of the transfected AR causes a color change in the media, which is measured by absorbance at 540 nm (Labsystems Multiskan Multisoft, Vienna, VA, USA). Plates were also measured at 620 nm to measure cell growth (turbidity) to check for any cytotoxic effects that may have occurred. […] Incubation time was 53 hr at 28°C. […] Pesticide serial dilutions were tested in duplicate over two plates and were tested in two separate experiments.
Specifically, a variety of nonlinear regression models were fitted independently to the same data set, and the best-fitting model was selected using a statistical goodness-of-fit criterion. […] Data considered to be statistically significant at p < 0.05 were analyzed using the best-fit approach as described above. All statistical analysis was performed using SAS statistical software (SAS Institute Inc., Cary, NC, USA). From the best-fitting model, we derived inhibitory concentrations for antiandrogenicity and effect concentrations for cytotoxicity.

[3] = test system: yeast; assay: YAS, cytotoxicity (turbidity at 620 nm); format: cell-based; conditions: for Cytotoxic EC20 (μM) YAS: EC20 = concentration that produces a 20% effect, yeast turbidity
Experimental: as §3, with “The methods for the YAS have been described previously ([Sohoni and Sumpter 1998]). Briefly,” for “Briefly,”, “occurred. Pesticides were coincubated with DHT (6.4 nM).” for “occurred.”

[4] = test system: MDA-kb2 cells; conditions: for Cytotoxic EC20 (μM) MDA-kb2: EC20 = concentration that produces a 20% effect
Experimental: as §1, §2

[5] = cited from earlier work; for Parent compound remaining on food commodities: stable on food commodities, ref EFSA 2007, 2010a, 2010b
[6] = target: T1, androgen receptor (AR); format: cell-based; conditions: androgenic in the absence of DHT; Neg = no response was observed
Experimental: as §1, §2

[7] = test system: aromatase; set-up: method as in Vinggaard et al. 2000; conditions: human placental microsomes; ref Vinggaard et al. 2000; cited from earlier work
[8] = set-up: method as in Lambright et al. 2000; Taxvig et al. 2007; conditions: ref Lambright et al. 2000; Taxvig et al. 2007; cited from earlier work
[9] = test system: rats; conditions: 12 mg/kg body weight/day, ref EFSA 2005; cited from earlier work
[10] = test system: adult male rats; conditions: 90 days, ref Ngoula et al. 2007, cited from earlier work

Question: With `COc1ccc(C(=CC(=O)N2CCOCC2)c2ccc(Cl)cc2)cc1OC` [Dimethomorph] as the molecule, how does the IC20 [1] read?
Answer: The IC20 was 0.263 µM.

Question: And the “Antiandrogenic activity in the MDA-kb2 assay (in words)” value [1]?
Answer: The value was “antiandrogenic”.

Question: What about the “ERR (environmental relevance ratio)” value [1] of the same molecule?
Answer: The value was 45.6.

Question: And the IC20 [2]?
Answer: Its IC20 is 38.5 µM.

Question: And the “Cytotoxic EC20 (μM) YAS” value [3]?
Answer: The value was greater than 50 µM.

Question: And the “Cytotoxic EC20 (μM) MDA-kb2” value [4]?
Answer: Its value is greater than 25 µM.

Question: What about the “Parent compound remaining on food commodities” value (shortened to “Parent compound remaining”) [5] of the same molecule?
Answer: The value was greater than 70%.

Question: What about the “Androgen EC20 (μM) MDA-kb2” value [6] of the same molecule?
Answer: Its value is “Neg”.

Question: With `CCOc1ccc2c(c1)C(C)=CC(C)(C)N2` [Ethoxyquin] as the molecule, how does the IC20 [1] read?
Answer: Its IC20 is 10.7 µM.

Question: And the “Antiandrogenic activity in the MDA-kb2 assay (in words)” value [1]?
Answer: Its value is “in vitro AR antagonists”.

Question: What about the “ERR (environmental relevance ratio)” value [1] of the same molecule?
Answer: Its value is 0.75.

Question: What about the IC20 [2] of the same molecule?
Answer: Its IC20 is 11.1 µM.

Question: What about the “Cytotoxic EC20 (μM) YAS” value [3] of the same molecule?
Answer: Its value is greater than 200 µM.

Question: And the “Cytotoxic EC20 (μM) MDA-kb2” value [4]?
Answer: The value was greater than 50 µM.

Question: And the “Androgen EC20 (μM) MDA-kb2” value [6]?
Answer: Its value is “Neg”.

Question: For `CC1(C(=O)Nc2ccc(O)c(Cl)c2Cl)CCCCC1` [Fenhexamid], which “Cytotoxic EC20 (μM) MDA-kb2” value [4] is on record?
Answer: The value was 21.6 µM.

Question: What about the “Parent compound remaining” value [5] of the same molecule?
Answer: Its value is greater than 70%.

Question: With `N#Cc1c[nH]cc1-c1cccc2c1OC(F)(F)O2` [Fludioxonil] as the molecule, how does the “Cytotoxic EC20 (μM) YAS” value [3] read?
Answer: Its value is greater than 160 µM.

Question: And the “Cytotoxic EC20 (μM) MDA-kb2” value [4]?
Answer: The value was 28.5 µM.

Question: And the “Parent compound remaining” value [5]?
Answer: Its value is greater than 70%.

Question: Which “Cytotoxic EC20 (μM) MDA-kb2” value [4] does the source give for `C=CCOC(Cn1ccnc1)c1ccc(Cl)cc1Cl` (centres unmarked) [Imazalil] here?
Answer: The value was 19.0 µM.

Question: What about the Aromatase inhibition [7] of the same molecule?
Answer: Its Aromatase inhibition is “inhibited aromatase”.

Question: Which “In vivo antiandrogen (in words)” value [8] does the source give for `CON(C)C(=O)Nc1ccc(Cl)c(Cl)c1` [Linuron] here?
Answer: The value was “known in vivo antiandrogens”.

Question: And the “Cytotoxic EC20 (μM) MDA-kb2” value [4]?
Answer: Its value is greater than 50 µM.

Question: Which “Testicular effect of maternal and postnatal exposure” value [9] does the source give for `CCN(CC)c1nc(C)cc(OP(=S)(OC)OC)n1` [Pirimiphos-methyl] here?
Answer: Its value is “testicular tubular atrophy”.

Question: And the “Cytotoxic EC20 (μM) YAS” value [3]?
Answer: Its value is greater than 200 µM.

Question: What about the “Cytotoxic EC20 (μM) MDA-kb2” value [4] of the same molecule?
Answer: The value was greater than 50 µM.

Question: What about the “Unchanged parent compound on stored grain” value ([5]; stored grain, < 24 weeks, ref EFSA 2005) of the same molecule?
Answer: The value was 70%.

Question: What about the Fertility ([10]; 125 mg/kg body weight/day) of the same molecule?
Answer: The Fertility was “decreased fertility”.

Question: And the “Sperm density and mobility” value ([10]; 125 mg/kg body weight/day)?
Answer: The value was “decreased sperm density and mobility”.

Question: What about the “Testicular atrophy, lowest observed adverse effect level” value [10] of the same molecule?
Answer: The value was 41.67 mg/kg body weight/day.

Question: With `CCCN(CCOc1c(Cl)cc(Cl)cc1Cl)C(=O)n1ccnc1` [Prochloraz] as the molecule, how does the “Cytotoxic EC20 (μM) MDA-kb2” value [4] read?
Answer: Its value is 12.5 µM.

Question: What about the Aromatase inhibition [7] of the same molecule?
Answer: Its Aromatase inhibition is “inhibited aromatase”.

Question: What does the source list for `CC12CC1(C)C(=O)N(c1cc(Cl)cc(Cl)c1)C2=O` (centres unmarked) [Procymidone, reference compound]?
Answer: IC50 ([1]; MDA-kb2, internal quality control for antiandrogenicity): 0.53 µM; IC20 [1]: 0.163 µM; Antiandrogenic activity in the MDA-kb2 assay (in words) [1]: in vitro AR antagonists; ERR (environmental relevance ratio) [1]: 202.5; IC20 [2]: 0.956 µM; Cytotoxic EC20 (μM) YAS [3]: > 160 µM; Cytotoxicity in the MDA-kb2 assay (in words) [4]: nontoxic; Cytotoxic EC20 (μM) MDA-kb2 [4]: > 50 µM; Androgen EC20 (μM) MDA-kb2 [6]: Neg

Question: With `CC(C)(C)C(O)(CCc1ccc(Cl)cc1)Cn1cncn1` (centres unmarked) [Tebuconazole] as the molecule, how does the “In vivo antiandrogen (in words)” value [8] read?
Answer: Its value is “known in vivo antiandrogens”.

Question: And the “Cytotoxic EC20 (μM) MDA-kb2” value [4]?
Answer: The value was 38.9 µM.

Question: Which results are given for `Cc1ccc(N(SC(F)(Cl)Cl)S(=O)(=O)N(C)C)cc1` [Tolylfluanid]?
Answer: Antiandrogen IC20 (μM) MDA-kb2 [1]: Neg; Antiandrogenic activity in the MDA-kb2 assay (in words) [1]: lacked activity; Antiandrogenic activity in the YAS (in words) ([2]; YAS): antiandrogenic; IC20 [2]: 0.234 µM; Cytotoxic EC20 (μM) YAS [3]: 1.14 µM; Cytotoxicity in the YAS assay (in words) ([3]; YAS): cytotoxic; Cytotoxicity in the MDA-kb2 assay (in words) [4]: cytotoxic; Cytotoxic EC20 (μM) MDA-kb2 [4]: 8.09 µM; Androgen EC20 (μM) MDA-kb2 [6]: Neg

Question: For `CCCC1COC(Cn2cncn2)(c2ccc(Cl)cc2Cl)O1` (centres unmarked) [propiconazole], which Aromatase inhibition [7] is on record?
Answer: Its Aromatase inhibition is “inhibited aromatase”.

Question: For `CC(C)(C)C(=O)C(Oc1ccc(Cl)cc1)n1cncn1` (centres unmarked) [triadimefon], which Aromatase inhibition [7] is on record?
Answer: Its Aromatase inhibition is “inhibited aromatase”.

Question: Which Aromatase inhibition [7] does the source give for `CC(C)(C)C(O)C(Oc1ccc(Cl)cc1)n1cncn1` (centres unmarked) [triadimenol] here?
Answer: Its Aromatase inhibition is “inhibited aromatase”.
